# Tests used:
# [1] = target: T1, Glucose-dependent insulinotropic receptor (Homo sapiens) (UniProt Q8TDV5); experiment: Agonist activity at human GPR119 receptor expressed in CHO-K1 cells assessed as cAMP accumulation at 10 uM after 30 mins by HTRF assay; format: functional, cell-based
# T1 sequence (whole entry): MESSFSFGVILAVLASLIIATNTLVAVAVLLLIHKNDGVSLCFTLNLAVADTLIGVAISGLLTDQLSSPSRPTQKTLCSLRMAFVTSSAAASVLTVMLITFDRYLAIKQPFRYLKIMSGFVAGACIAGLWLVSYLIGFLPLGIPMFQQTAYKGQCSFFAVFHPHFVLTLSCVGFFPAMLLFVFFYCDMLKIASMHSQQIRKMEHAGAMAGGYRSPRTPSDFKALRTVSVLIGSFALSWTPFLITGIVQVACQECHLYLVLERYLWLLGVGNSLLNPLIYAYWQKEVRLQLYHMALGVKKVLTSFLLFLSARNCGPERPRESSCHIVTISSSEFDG
# [2] = target: T1, Glucose-dependent insulinotropic receptor (Homo sapiens); experiment: Agonist activity at human GPR119 receptor expressed in CHO-K1 cells assessed as cAMP accumulation after 30 mins by HTRF assay relative to AR231453; format: functional, cell-based
# [3] = target: T2, Glucose-dependent insulinotropic receptor (Homo sapiens, UniProt Q8TDV5); experiment: Agonist activity at human GPR119 receptor expressed in CHO-K1 cells assessed as cAMP accumulation after 30 mins by HTRF assay; format: functional, cell-based
# T2 sequence (Q8TDV5 whole entry): T1 sequence (whole entry)
# [4] = target: T3, Glucose-dependent insulinotropic receptor (Mus musculus, UniProt Q7TQP3); experiment: Agonist activity at mouse GPR119 receptor expressed in CHO-K1 cells assessed as cAMP accumulation after 30 mins by HTRF assay; format: functional, cell-based
# T3 sequence (Q7TQP3 whole entry): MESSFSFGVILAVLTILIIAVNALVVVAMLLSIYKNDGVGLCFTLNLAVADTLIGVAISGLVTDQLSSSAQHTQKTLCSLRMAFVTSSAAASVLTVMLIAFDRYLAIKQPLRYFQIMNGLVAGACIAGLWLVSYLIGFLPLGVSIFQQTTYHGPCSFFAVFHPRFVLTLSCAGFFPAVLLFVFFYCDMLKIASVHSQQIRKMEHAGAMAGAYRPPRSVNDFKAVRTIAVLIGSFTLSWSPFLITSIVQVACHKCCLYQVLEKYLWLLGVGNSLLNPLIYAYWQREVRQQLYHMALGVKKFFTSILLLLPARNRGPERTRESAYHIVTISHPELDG
# [5] = target: T4, Glucose-dependent insulinotropic receptor (Mus musculus) (UniProt Q7TQP3); experiment: Agonist activity at mouse GPR119 receptor expressed in CHO-K1 cells assessed as cAMP accumulation after 30 mins by HTRF assay relative to AR231453; format: functional, cell-based
# T4 sequence (whole entry): T3 sequence (Q7TQP3 whole entry)
# [6] = target: T1, Glucose-dependent insulinotropic receptor (Homo sapiens); experiment: Agonist activity at human GPR119 receptor expressed in CHO-K1 cells assessed as cAMP accumulation at 1 uM after 30 mins by HTRF assay; format: functional, cell-based
# [7] = test system: Mus musculus; experiment: Antidiabetic activity in po dosed fasted C57BL/6j mouse assessed as decrease in glucose excursion administered 30 mins prior to oral glucose-challenge by oral glucose tolerance test; format: functional, organism-based
# [8] = test system: Mus musculus; experiment: Antidiabetic activity in fasted C57BL/6j mouse assessed as decrease in glucose excursion at 3 mg/kg, po administered 30 mins prior to oral glucose-challenge measured after 120 mins by oral glucose tolerance test; format: functional; parameters: scale not given: the % may be the effect or the level left
# [9] = test system: Mus musculus; experiment: Antidiabetic activity in fasted C57BL/6j mouse assessed as decrease in glucose excursion at 10 mg/kg, po administered 30 mins prior to oral glucose-challenge measured after 120 mins by oral glucose tolerance test; format: functional; parameters: scale not given: the % may be the effect or the level left
# [10] = test system: Mus musculus; experiment: Antidiabetic activity in fasted C57BL/6j mouse assessed as decrease in glucose excursion at 10 mg/kg, po administered 30 mins prior to subcutaneous glucose-challenge after 120 mins by subcutaneous glucose tolerance test; format: functional; parameters: scale not given: the % may be the effect or the level left
# [11] = test system: Mus musculus; experiment: Antidiabetic activity in fasted C57BL/6j mouse assessed as increase in plasma GLP-1 level at 30 mg/kg, po after 30 mins by ELISA relative to control; format: functional
Compound,Emax [2],EC50 [3],EC50 [4],Emax [5],further results
CN(CCNc1ccc2c(c1)CCS2(=O)=O)C1CCN(C(=O)OC(C)(C)C)CC1,10%,–,–,–,Activity [1]: 10%
CC(C)(C)OC(=O)N1CCC(CCCNc2ccc3c(c2)CNC3=O)CC1,91%,0.55 µM,0.515 µM,102%,–
CC(C)(C)OC(=O)N1CCC(CCCNc2ccc3c(c2)NNS3(=O)=O)CC1,99%,0.268 µM,0.331 µM,95%,–
CC(C)c1nc(N2CCC(CCCNc3ccc4c(c3)OCC4=O)CC2)no1,91%,0.161 µM,–,–,–
COC(=O)c1cnc(N2CCC(CCCNc3ccc4c(c3)OCC4=O)CC2)nc1,85%,0.149 µM,0.139 µM,67%,–
CC(C)(C)OC(=O)N1CCC(CCCNc2ccc3c(c2)C(=O)NC3)CC1,89%,0.734 µM,0.892 µM,97%,–
CC(C)c1nsc(N2CCC(CCCNc3ccc4c(c3)OCC4=O)CC2)n1,10%,0.121 µM,0.812 µM,93%,–
CC(C)(C)OC(=O)N1CCC(CCCCCNc2ccc3c(c2)CCS3(=O)=O)CC1,65%,0.145 µM,–,–,–
CC(C)(C)OC(=O)N1CCC(CCCNc2ccc3c(c2)OCCS3(=O)=O)CC1,81%,0.511 µM,–,–,–
CC(C)c1nnc(N2CCC(CCCNc3ccc4c(c3)OCC4=O)CC2)o1,85%,0.704 µM,1.02 µM,88%,–
CC(C)(C)OC(=O)N1CCC(CCCNc2ccc3c(c2)CCCCC3=O)CC1,38%,0.77 µM,–,–,–
CC(C)(C)OC(=O)N1CCC(OCCNc2ccc3c(c2)CCS3(=O)=O)CC1,33%,–,–,–,Activity [6]: 33%
CC(C)(C)OC(=O)N1CCC(CCCNc2ccc3c(c2)C(=O)CCO3)CC1,100%,0.272 µM,0.351 µM,108%,–
CC(C)(C)OC(=O)N1CCC(CCCOc2ccc3c(c2)CCS3(=O)=O)CC1,84%,0.736 µM,–,–,–
CC(C)(C)OC(=O)N1CCC(CCCC(=O)Nc2ccc3c(c2)CCS3(=O)=O)CC1,56%,2.61 µM,–,–,–
CC(C)(C)OC(=O)N1CCC(CCCNc2ccc3c(c2)S(=O)(=O)CC3)CC1,25%,1.03 µM,–,–,–
CC(C)(C)OC(=O)N1CCC(CCCNc2ccc3c(c2)OCS3(=O)=O)CC1,93%,0.254 µM,0.266 µM,105%,–
CC(C)(C)OC(=O)N1CCC(CCCNc2ccc3c(c2)CCS3(=O)=O)CC1,80%,0.27 µM,0.224 µM,83%,–
CC(C)(C)OC(=O)N1CCC(CCCCNc2ccc3c(c2)CCS3(=O)=O)CC1,62%,0.21 µM,–,–,–

# Further molecules by falling EC50 [3], results first:
Emax [2],EC50 [3],EC50 [4],Emax [5],Compound,further results
115%,0.117 µM,0.159 µM,98%,CCc1cnc(N2CCC(CCCNc3ccc4c(c3)OCC4=O)CC2)nc1,–
101%,0.115 µM,0.06 µM,106%,COc1cnc(N2CCC(CCCNc3ccc4c(c3)OCC4=O)CC2)nc1,–
95%,0.088 µM,0.262 µM,116%,CC(C)(C)OC(=O)N1CCC(CCCNc2ccc3c(c2)C(=O)CO3)CC1,–
85%,0.086 µM,0.087 µM,105%,CC(C)(C)OC(=O)N1CCC(CCCNc2ccc3c(c2)CCC3=O)CC1,–
94%,0.073 µM,–,–,CC(C)c1noc(N2CCC(CCCNc3ccc4c(c3)OCC4=O)CC2)n1,–
110%,0.058 µM,0.158 µM,113%,CC(C)c1noc(N2CCC(CCCNc3ccc4c(c3)C(=O)CC4)CC2)n1,–
94%,0.052 µM,0.066 µM,108%,CC(C)(C)OC(=O)N1CCC(CCCNc2ccc3c(c2)OCC3=O)CC1,–
113%,0.051 µM,0.167 µM,110%,CCc1cnc(N2CCC(CCCNc3ccc4c(c3)C(=O)CC4)CC2)nc1,Activity [7]: Dose-dependent effect; Activity [8]: 29%; Activity [9]: 38%; Activity [10]: 32%; fold change (FC) [11]: >2
98%,0.046 µM,0.123 µM,110%,CC(C)(C)OC(=O)N1CCC(CCCNc2ccc3c(c2)C(=O)CC3)CC1,–
